The values that follow come from patent US5332733A, “Heterocyclically substituted piperazinoakylbenzoxazine and piperazinoalkylbenzothiazine compounds, processes for preparing them, and medicaments containing them” (Kali-Chemie Pharma GmbH, priority 1990, dated 1994).

One experiment addresses T1, cyclooxygenase (Mus musculus, UniProt P22437).
T1 construct: A cell suspension containing peritoneal cells from male mice 8-10 weeks old was obtained in a known manner; endogenous in cells; host or cells: mouse peritoneal macrophages (primary, adherent)
T1 sequence (P22437 27-602): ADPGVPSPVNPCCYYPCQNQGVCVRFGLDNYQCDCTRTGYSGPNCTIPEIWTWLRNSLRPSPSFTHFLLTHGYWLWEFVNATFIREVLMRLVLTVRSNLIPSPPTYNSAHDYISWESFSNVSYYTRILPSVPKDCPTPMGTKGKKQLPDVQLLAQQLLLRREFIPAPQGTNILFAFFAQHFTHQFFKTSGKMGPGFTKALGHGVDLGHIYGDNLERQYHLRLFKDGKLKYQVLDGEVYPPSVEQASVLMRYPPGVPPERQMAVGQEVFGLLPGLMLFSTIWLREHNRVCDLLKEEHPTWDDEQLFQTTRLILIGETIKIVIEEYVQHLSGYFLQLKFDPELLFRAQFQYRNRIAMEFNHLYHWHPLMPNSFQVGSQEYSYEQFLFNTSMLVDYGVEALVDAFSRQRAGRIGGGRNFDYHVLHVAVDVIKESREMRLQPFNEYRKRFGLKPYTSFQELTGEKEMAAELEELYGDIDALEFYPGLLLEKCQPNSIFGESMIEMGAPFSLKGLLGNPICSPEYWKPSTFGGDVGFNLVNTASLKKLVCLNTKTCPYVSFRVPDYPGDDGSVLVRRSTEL
In words: In vitro cyclooxygenase inhibition, release of 6-keto-PGF1α from zymosan-stimulated peritoneal macrophages. Particulars: zymosan-stimulated mouse peritoneal macrophage cells, 10^-5 mole/l. It is filed as cell-based. The text has this: 5. In Vitro Determination of Cyclooxygenase Inhibition And 5-lipoxygenase Inhibition.
After a cell is activated, arachidonic acid contained in cell membranes is metabolized in two ways. Leucotrienes, inter alia leucotriene C4, are formed due to the action of the enzyme 5-lipoxygenase (=5-LO), and prostanoids are formed due to the action of the enzyme cyclooxygenase (=CO). In in vitro systems these metabolites are secreted from the cell.
To evaluate the cyclooxygenase-inhibiting and 5-lipoxygenase-inhibiting properties of the test substances, their inhibitory activity on the biosynthesis of the arachidonic acid derivatives leucotriene C4 (=LTC4) and 6-keto-prostaglandin F1α (=6-keto-PGF1α) was determined in vitro on mouse peritoneal macrophage cells. For this purpose the LTC4 and 6-keto-PGF1α contents of a mouse peritoneal macrophage cell culture medium were determined by zymosan stimulation as described by Scott et al. (J. Exp. Med. 152 (1980), 324-335) and by Fradin et al., (Prostaglandins, 33 (1987), 579-589).
A cell suspension containing peritoneal cells from male mice 8-10 weeks old was obtained in a known manner. A solution marketed under the designation RPMI 1640 (Manufactured by Gibco) was used as the cell culture medium, to which heparin (10 international units/ml) and antibiotics were added according to the procedure of Bonney et al. (Biochem. J. 176 (1978) 422-433). The cell suspension was adjusted to a cell concentration of 10^6 cells per ml and distributed uniformly on titer dishes containing 24 1-ml titer cells (wells). These were kept for two hours in a humidified incubator filled with air enriched with 7% CO2. Cells not adhering to the titer well walls were then removed by washing. The remaining macrophage cells adhering to the walls were incubated for about 12 hours in a suspension medium to which 0.1% of bovine serum albumin (BSA=Bovine Serum Albumin) was added. The suspension medium was then replaced by a Hanks salt solution (=Hanks Balanced Salt Solution=HBSS) with 10 mmoles of HEPES (=hydroxyethylpiperazinoethanesulfonic acid) to which a 0.1% strength solution of the test substances in aqueous, 1% strength dimethylformamide or only the solvent had been added. After 15 minutes the arachidonic acid metabolism was stimulated by adding […] of zymosan (=glycoprotein mixture isolated from cell walls of beer yeast, Saccharomyces cerevisiae, Manufactured by Sigma Chemical Co., Munich) per titre cell. After 2 hours samples of the respective supernatant liquid in each cell were examined for their 6-keto-PGF1α and LTC4 contents by an enzyme immunoassay (=EIA). This EIA is carried out following the method of Pradelles et al. (Analytical Chem. 57 (1985), 1170-1173). The determination of LTC4 and the determination of 6-keto-PGF1α were each carried out on suitable dilutions of the samples (1:50 to 1:250 for the LTC4 determination and 1:250 to 1:1,250 for the 6-keto-PGF1α determination) in comparison with a comparative scale. To determine the inhibiting effect of a 10^-5 molar concentration of the compounds, the amounts of reference eicosanoid were determined, and the inhibiting effect was calculated therefrom in % inhibition compared to the measurements of the zymosan controls.

The next experiment concerns the target T2, histamine-(H1)-receptor (Cavia porcellus, UniProt P31389).
T2 construct: Segments of the ileum 1.5 cm long from Dunkin Hartley guinea pigs; from tissue; host or cells: isolated ileum of Dunkin Hartley guinea pigs
In words: Histamine-(H1)-receptor antagonism in vitro, histamine-induced contractions of isolated ileum. It is filed as cell-based, guinea pig (Dunkin Hartley). Particulars: test substance 10^-6 mole/l, histamine 5 × 10^-6 mole/l. As for the experimental part: 3. Investigation of Anti-Histamine-(H1) Effect Based on Histamine-(H1)-Receptor Antagonism In Vitro
To investigate the histamine-(H1)-receptor antagonism of the test substances, the inhibiting effect of the substances on histamine-induced contractions of the smooth muscle was determined in vitro on the isolated organ. Isolated strips of organ from the ileum are suitable for this purpose. In an organ bath of physiological saline solution the smooth muscle strips react to the addition of histamine by contracting. […] The extent of regression of the contraction is an indication of the anti-histamine-(H1) activity of the compounds. The investigation was carried out analogously to the method originally described by Magnus (Pfluegers Arch. 102, 123 (1904)).
Procedure for determining the smooth muscle contraction inhibiting effect on isolated guinea pig ileum induced by a 5×10^-6 molar histamine concentration
Segments of the ileum 1.5 cm long from Dunkin Hartley guinea pigs having a body weight of 300 500 g were used for the test. Each strip was placed in an organ bath of 10 ml of physiological saline solution according to Krebs-Henseleit and attached to a conventional apparatus for isotonic measurement of changes in length of the ileum strips (automated Celaster measuring apparatus), so that the tissue was under 1 g of tension. The bath was kept at a pH of 7.4 and gassed with a mixture of 5% CO2 and 95% O2. After an equilibration phase, an isotonic contraction of the tissue was induced by adding histamine in a final concentration of 5×10^-6 mole/liter and washing it out again after a contact time of 30 seconds. Only tissues samples from which three reproducible contractions were obtained at 10 minute intervals were used in the subsequent test. The test substances were then added in a final concentration of 10^-6 mole/liter, and after 30 seconds contact time histamine was again added up to a concentration of 5×10^-6 mole/liter. The resulting contractions were measured over 30 seconds. The tissue was then washed several times over a period of 10 minutes. Histamine was then added again to stimulate a contraction. The resulting contractions were again measured over 30 seconds. The difference between the amplitude of the contraction obtained by histamine addition alone and the amplitude of the contraction obtained in the presence of the test substance was determined and expressed in terms of % inhibition.
The inhibiting effects on the contractions induced by histamine 30 seconds after administration of the test substance and on the contractions induced by the addition of histamine 10 minutes later are listed in the table.

Where [1] appears, read: 0.5 min, after 30 seconds, read-out: % inhibition of histamine-induced ileum contractions after 30 seconds.
[2] abbreviates: 10 min, after 10 minutes (after washing), read-out: % inhibition of histamine-induced ileum contractions after 10 minutes.

Read-outs that look alike come from different tables or passages of the source.

T2 sequence (P31389 whole entry): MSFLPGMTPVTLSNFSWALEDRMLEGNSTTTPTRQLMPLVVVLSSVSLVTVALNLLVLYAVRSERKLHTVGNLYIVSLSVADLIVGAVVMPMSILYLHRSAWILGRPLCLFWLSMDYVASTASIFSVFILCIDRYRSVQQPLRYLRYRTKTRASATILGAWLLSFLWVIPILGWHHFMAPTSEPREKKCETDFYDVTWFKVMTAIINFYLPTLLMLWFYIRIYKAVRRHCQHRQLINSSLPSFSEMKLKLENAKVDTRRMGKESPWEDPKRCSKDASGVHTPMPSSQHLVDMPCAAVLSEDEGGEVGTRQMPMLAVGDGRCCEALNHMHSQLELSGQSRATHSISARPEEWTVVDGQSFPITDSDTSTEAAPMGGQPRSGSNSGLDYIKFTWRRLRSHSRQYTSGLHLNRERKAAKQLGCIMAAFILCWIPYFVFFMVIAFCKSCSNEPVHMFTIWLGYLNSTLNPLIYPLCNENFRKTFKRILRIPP

For `Cc1ccnc(N2CCN(CCCCC3Sc4ccccc4NC3=O)CC2)c1` (centres unmarked) [Example 1, 2-{4-[4-(4-methylpyridin-2-yl)-piperazin-1-yl]butyl}-2H-1,4-benzothiazine-3(4H)-one], on cyclooxygenase, the “% inhibition upon release of 6-keto-PGF1α” value (“% inhibition upon release” for short) is given as 27%.

In general, inhibition refers to the percentage by which the read-out fell short of the control. For the molecule `Cc1ccnc(N2CCN(CCCCC3Oc4ccccc4NC3=O)CC2)c1` (centres unmarked) [Example 7], the “% inhibition upon release” value at cyclooxygenase is 17%. In addition, the inhibition at 1 µM turned out to be 85% on histamine-(H1)-receptor (setting [1]) and 74% at histamine-(H1)-receptor (setting [2]). With `Cc1ccnc(N2CCN(CCCC3Sc4ccccc4NC3=O)CC2)c1` (centres unmarked) [Example 8], the inhibition at 1 µM at histamine-(H1)-receptor (setting [1]) amounted to 42%; at histamine-(H1)-receptor (setting [2]), 5%. For `Cc1ccnc(N2CCN(CCCC3Oc4ccccc4NC3=O)CC2)c1` (centres unmarked) [Example 9], the “% inhibition upon release” value at cyclooxygenase is 32%. `Cc1ccnc(N2CCN(CCCC3Sc4ccccc4NC3=S)CC2)c1` (centres unmarked) [Example 11]: on cyclooxygenase, the “% inhibition upon release” value was found to be 0%. For the same molecule, the inhibition at 1 µM came out at 32% at histamine-(H1)-receptor (setting [1]) and 35% on histamine-(H1)-receptor (setting [2]). Turning to `O=C1Nc2ccccc2SC1CCCN1CCN(c2ccc(Cl)cn2)CC1` (centres unmarked) [Example 15], on cyclooxygenase, the “% inhibition upon release” value was determined as 46%.
